Values of other authors, collected in patent publication US20230175068A1, “PROGNOSIS METHOD OF ACUTE MYELOID LEUKAEMIA” (CENTRE NATIONAL DE LA RECHERCHE SCIENTIFIQUE, priority 2020, published 2023).
Read-outs that look alike come from different tables or passages of the source.

System: AML cell lines

Compound	T-Statistic (Drug sensitivity AUC (Sanger GDSC2))	T-Statistic (Drug sensitivity AUC (Sanger GDSC1))
O=C1NC(=O)c2c1c(-c1ccccc1Cl)cc1[nH]c3ccc(O)cc3c21 [Wee1 Inhibitor]	-4.966	
O=C(c1cc(Cc2n[nH]c(=O)c3ccccc23)ccc1F)N1CCN(C(=O)C2CC2)CC1 [Olaparib]		-3.795
